Values joined by “and” are separate entries in the source; they are usually repeats but may differ in a detail not shown here. Equal entries are not always repeated.
Test system: 994946-033-R-J1-PDC complex spheroid viability
Assay: Anticancer human tumor 994946-033-R-J1-PDC patient-derived melanoma cell line growth inhibition [POLQ]
Settings: for viability, T/C: stronger effect = lower value; active = viability on the fitted dose curve at most 10% of control; inactive = the rest
Description: Multicellular complex tumor spheroid response to Polymerase (POL) inhibitors (novobiocin, ART-558, RP6685) in combination with a variety of drugs and investigational agents in selected tumor cell lines
The POL inhibitors (novobiocin, ART-558, and RP6685) were evaluated both individually and in combination with standard of care and investigational anticancer small molecules within a complex spheroid model of solid tumors. . Complex spheroids include a stromal component modeled by human endothelial cells (HUVEC) and fibroblasts modeled by human mesenchymal stem cells (MSCs). The concentration ranges selected for each drug and investigational agent were based upon clinically achievable concentrations if the clinical Cmax of the agent was known.
Compounds. The drugs and investigational agents: novobiocin (NSC847541), ART-558 (NSC835418), RP-6685 (NSC848927), peposertib (NSC802822), ceralasertib (NSC780249), elimusertib (NSC800525), camonsertib (NSC841442), AZD-1390 (NSC803789), olaparib (NSC753686), talazoparib (NSC767125), rucaparib (NSC756644), sotorasib (NSC818433), MRTX-1133 (NSC836407), SN-38 (NSC673596), topotecan (NSC609699), epotoside (NSC141540), doxorubicin (NSC123127), gemcitabine (NSC613327), 5-fluorouracil (NSC19893), paclitaxel (NSC125973), vemurafenib (NSC761431), MSA-2 (NSC828583), SN-011 (NSC837082), adavosertib (NSC754352), prexasertib (NSC758257), carboplatin (NSC241240) and oxaliplatin (NSC266046), were obtained from the National Cancer Institute (NCI) Developmental Therapeutics Program Chemical Repository (21). The FDA-approved anticancer drug set is available from the Developmental Therapeutics Program at https://dtp.cancer.gov/organization/dscb/obtaining/. […] The stock solutions were prepared in dimethyl sulfoxide (DMSO, Sigma-Aldrich, St. Louis, MO, cat. D2650), except for the platinum compounds which were prepared in saline (Quality Biological, Gaithersburg, MD, cat. 114-055-101), at 800-fold the tested concentration and stored at -70 degrees C prior to their use. All drugs and investigational agents were tested over a range starting from a high concentration at or near the clinical Cmax and decreasing in half-log increments. If the clinical Cmax for an agent had not been determined, the highest concentration tested was 10 microM, except for SN-38, which was tested at a high concentration of 1 microM.
Cell Culture. All cells were maintained in an incubator at 37 degrees C and 5% CO2 with 95% humidity. The PDC lines were cultured according to standard operating procedures established by the NCI PDMR (https://pdmr.cancer.gov). Table 3 of the manuscript, lists the cell lines along with the number of the three cell types plated to form the mct-spheroids and media for tumor cell growth. After thawing, all PDC lines, except 997537-175-T-J1-PDC and 415267-285-R-J2-PDC, were cultured in Matrigel-coated flasks prepared with a working solution of 1X Ham's F-12 nutrient mix, without supplementation (Thermo Fisher Scientific, cat. 11765054), 100 U/mL penicillin-streptomycin (Thermo Fisher Scientific, cat. 15140122), and 2.5% Matrigel (Corning Inc., Corning, NY, cat. 354248) for the first three passages. The two PDC lines 997537-175-T-J1-PDC and 415267-285-R-J2-PDC were cultured on uncoated flasks. The 857933-349-R-J2-PDC line was cultured in 6C/Colon 1B media containing advanced DMEM/F-12 (Thermo Fisher Scientific, cat. 12634028), 10 mM HEPES (Thermo Fisher Scientific, cat. 15630080), 1X GlutaMAX supplement (Thermo Fisher Scientific, cat. 35050061), 0.1 mg/mL primocin (InvivoGen, San Diego, CA, cat. ant-pm-2), 10% defined fetal bovine serum, heat inactivated (HyClone Laboratories Inc., Logan, UT, cat. SH30070.03HI), 50% L-WRN conditioned media (ATCC, cat. CRL-3276), 1.25 mM N-Acetyl-L-cysteine (Sigma-Aldrich, cat. A9165), 10 mM nicotinamide (Sigma-Aldrich, cat. N0636), 1X B-27 supplement (Thermo Fisher Scientific, cat. 17504044), 1X N-2 supplement (Thermo Fisher Scientific, cat. […]
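Also: spheroids exposed to drugs for 7 days.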
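For viability, T/C in this document: 100% = DMSO vehicle treated spheroids.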

COc1cccc(OCCCN)c1-c1cc(Nc2cnc(C#N)cn2)n[nH]1
inactive: viability, T/C (compound 0.00316 µM) 75.6% and 100% and 79.2% | viability, T/C (compound 0.01 µM) 60.5% and 80.8% and 75.1% | viability, T/C (compound 0.0316 µM) 14.7% and 28.4% and 65.5% | viability, T/C (compound 0.1 µM) 29.1% and 32.4% and 35.9% | viability, T/C (compound 0.316 µM) 28.6% and 28.5% and 17.2% | viability, T/C (compound 1 µM) 16.6% and 16.5% and 12.6%
0.0137 µM and 0.0197 µM and 0.0575 µM: IC50 (curve of compound)

C=CC(=O)N1CCN(c2nc(=O)n(-c3c(C)ccnc3C(C)C)c3nc(-c4c(O)cccc4F)c(F)cc23)C(C)C1 (centres undefined) + Nc1ccc(C#CCN(C(=O)Cc2ncc(C(F)(F)F)cc2C(F)(F)F)c2ccc(F)cc2)nn1
inactive: viability, T/C (second compound 0.0316 µM, first compound 0.0316 µM) 92.1% | viability, T/C (second compound 0.0316 µM, first compound 0.1 µM) 94.9% | viability, T/C (second compound 0.0316 µM, first compound 0.316 µM) 73.3% | viability, T/C (second compound 0.0316 µM, first compound 1 µM) 119% | viability, T/C (second compound 0.0316 µM, first compound 3.16 µM) 130% | viability, T/C (second compound 0.0316 µM, first compound 10 µM) 86.9% | viability, T/C (second compound 0.1 µM, first compound 0.0316 µM) 102% | viability, T/C (second compound 0.1 µM, first compound 0.1 µM) 108% | viability, T/C (second compound 0.1 µM, first compound 0.316 µM) 75.2% | viability, T/C (second compound 0.1 µM, first compound 1 µM) 119% | viability, T/C (second compound 0.1 µM, first compound 3.16 µM) 74.6% | viability, T/C (second compound 0.1 µM, first compound 10 µM) 70.7% | viability, T/C (second compound 0.316 µM, first compound 0.0316 µM) 104% | viability, T/C (second compound 0.316 µM, first compound 0.1 µM) 52.8% | viability, T/C (second compound 0.316 µM, first compound 0.316 µM) 112% | viability, T/C (second compound 0.316 µM, first compound 1 µM) 110% | viability, T/C (second compound 0.316 µM, first compound 3.16 µM) 103% | viability, T/C (second compound 0.316 µM, first compound 10 µM) 73.7% | viability, T/C (second compound 1 µM, first compound 0.0316 µM) 94.2% | viability, T/C (second compound 1 µM, first compound 0.1 µM) 125% | viability, T/C (second compound 1 µM, first compound 0.316 µM) 108% | viability, T/C (second compound 1 µM, first compound 1 µM) 102% | viability, T/C (second compound 1 µM, first compound 3.16 µM) 130% | viability, T/C (second compound 1 µM, first compound 10 µM) 122% | viability, T/C (second compound 3.16 µM, first compound 0.0316 µM) 80.7% | viability, T/C (second compound 3.16 µM, first compound 0.1 µM) 112% | viability, T/C (second compound 3.16 µM, first compound 0.316 µM) 83.8% | viability, T/C (second compound 3.16 µM, first compound 1 µM) 119% | viability, T/C (second compound 3.16 µM, first compound 3.16 µM) 118% | viability, T/C (second compound 3.16 µM, first compound 10 µM) 98.4% | viability, T/C (second compound 10 µM, first compound 0.0316 µM) 110% | viability, T/C (second compound 10 µM, first compound 0.1 µM) 117% | viability, T/C (second compound 10 µM, first compound 0.316 µM) 110% | viability, T/C (second compound 10 µM, first compound 1 µM) 105% | viability, T/C (second compound 10 µM, first compound 3.16 µM) 120% | viability, T/C (second compound 10 µM, first compound 10 µM) 116%
> 10 µM: IC50 (curve of first compound, second compound 0.0316 µM) | IC50 (curve of first compound, second compound 0.1 µM) | IC50 (curve of first compound, second compound 0.316 µM) | IC50 (curve of first compound, second compound 1 µM) | IC50 (curve of first compound, second compound 3.16 µM) | IC50 (curve of first compound, second compound 10 µM)

— PubChem BioAssay AID1963827 (Molecular Pharmacology Branch, DTP, NCI, 2024)
